Measured values published in patent US11617726B2, “Method for preventing, treating, or ameliorating a microbial infection” (priority 2018, dated 2023).

Test system: Acinetobacter baumannii isolates
Experiment: Antimicrobial susceptibility test, disc diffusion method (CLSI M100-S24)
Assay type: cell-based
Parameters: key to Inhibition zone: “NZ” indicated that no zone of inhibition was observed
Conditions: for Inhibition zone: disc diffusion
Experimental: A total of 33 non-duplicate, non-consecutive clinical isolates of Multi-Drug Resistant (MDR) Acinetobacter baumannii were collected from burn wards (“AB1-AB33”). Acinetobacter baumannii ATCC BAA 747 and Pseudomonas aeruginosa ATCC 27853 were used as control strains. The isolates were stored at −80° C. in trypticase soy broth containing 20% glycerol.
Antimicrobial susceptibility tests of the collection of isolates were conducted using the disc diffusion method. The experiment was performed according to the recommendations and guidelines of Clinical Laboratory Standard Institutes (CLSI M100-S24; 2014). Clinical and Laboratory Standards Institute (CLSI), “Performance standards for antimicrobial susceptibility testing; twenty-fourth informational supplement,” Document M100-S24, Clinical and Laboratory Standards Institute (CLSI), Wayne, Pa., USA, 2014.
A panel of commercial antibiotic discs (Amoxicillin (AMX), Amoxicillin/clavulanic acid (AMX/CLA), Piperacillin (PIP), Piperacillin/Tazobactam (PIP/TAZ), Ceftazidime (CAZ), Cefotaxime (CTX), Cefepime (FEP), Cefoxitin (FOX), Aztreonam (ATM), Imipenem (IP), Gentamicin (GEN), Amikacin (AK), Neomycin (NEO), Levofloxacin (LEV), Chloramphenicol (CHL), Tetracycline (TET), sulfamethoxazole/trimethoprim (SUL/TRI) was used for susceptibility testing. All commercial antibiotic discs were purchased from BBL (Becton Dickinson, USA).
Forty grams of Mueller-Hinton Agar (MHA) were suspended in 1 Liter distilled water and then boiled to dissolve the powder completely. The medium was sterilized by autoclaving at 121° C. for 15 min. After autoclaving, the medium was cooled to 45° C. and 25 mL of molten agar media was poured into sterile Petri dishes (90 mm diameter) to give a depth of about 4 mm. The surface of the agar was dried to remove excess moisture before use. The plates were stored at 4-8° C. in sealed plastic bags if not used immediately.
The inoculum suspension was prepared by selecting three to five morphologically similar colonies from overnight growth (16-24 h of incubation) on blood agar medium. […] The suspension density was measured using a UV spectrophotometer calibrated with a 0.5 McFarland standard. The density of the suspension was adjusted to McFarland 0.5 by addition of saline or more microorganisms. The adjusted inoculum suspension was used within 60 min of preparation.
A sterile cotton swab was dipped into the bacterial suspension and the excess fluid was removed by turning the swab against the inside wall of the tube to avoid over-inoculation of plates. The inoculum was spread evenly over the entire surface of the agar plate by swabbing in three directions.
The predetermined panel of antimicrobial disks was applied firmly on the inoculated Mueller-Hinton agar surface within 15 min of inoculation of the plates by a disc dispenser device. A maximum of six disks were accommodated on a 90-mm circular plate.
Within 15 min of application of antimicrobial disks, the plates were inverted and incubated aerobically at 35-37° C. for 18-20 h.
After incubation, inhibition zones were measured at the point where no obvious growth is detected by the unaided eye when the plate is held about 30 cm from the eye. Inhibition zone diameters were measured to the nearest millimeter with a ruler. The plates were read from the back of the plate with reflected light against a dark background. Zone diameters were interpreted and categorized as susceptible “S”, intermediate “I”, or resistant “R” according to the CLSI clinical breakpoint tables (see Table 1 and Table 2).

NCC[C@H](O)C(=O)N[C@@H]1C[C@H](N)[C@@H](O[C@H]2O[C@H](CN)[C@@H](O)[C@H](O)[C@H]2O)[C@H](O)[C@H]1O[C@H]1O[C@H](CO)[C@@H](O)[C@H](N)[C@H]1O [AK, Amikacin]
susceptibility category (isolate AB1, AK disc): S (Sensitive ≥17) | Inhibition zone (isolate AB1): 24 mm | susceptibility category (isolate AB2, AK disc): S (Sensitive ≥17) | Inhibition zone (isolate AB2): 20 mm | susceptibility category (isolate AB3, AK disc): S (Sensitive ≥17) | Inhibition zone (isolate AB3): 26 mm | susceptibility category (isolate AB4, AK disc): S (Sensitive ≥17) | Inhibition zone (isolate AB4): 21 mm | Inhibition zone (isolate AB5): 7 mm | susceptibility category (isolate AB6, AK disc): S (Sensitive ≥17) | Inhibition zone (isolate AB6): 30 mm | Inhibition zone (isolate AB7): NZ | Inhibition zone (isolate AB8): 12 mm | susceptibility category (isolate AB9, AK disc): S (Sensitive ≥17) | Inhibition zone (isolate AB9): 22 mm | Inhibition zone (isolate AB10): NZ | Inhibition zone (isolate AB11): NZ | susceptibility category (isolate AB12, AK disc): S (Sensitive ≥17) | Inhibition zone (isolate AB12): 21 mm | susceptibility category (isolate AB13, AK disc): S (Sensitive ≥17) | Inhibition zone (isolate AB13): 22 mm | Inhibition zone (isolate AB14): NZ | Inhibition zone (isolate AB15): 13 mm | susceptibility category (isolate AB16, AK disc): S (Sensitive ≥17) | Inhibition zone (isolate AB16): 19 mm | susceptibility category (isolate AB17, AK disc): S (Sensitive ≥17) | Inhibition zone (isolate AB17): 22 mm | Inhibition zone (isolate AB18): 14 mm | Inhibition zone (isolate AB19): 14 mm | Inhibition zone (isolate AB20): NZ | Inhibition zone (isolate AB21): 11 mm | Inhibition zone (isolate AB22): NZ | Inhibition zone (isolate AB23): NZ | Inhibition zone (isolate AB24): 14 mm | Inhibition zone (isolate AB25): NZ | susceptibility category (isolate AB26, AK disc): S (Sensitive ≥17) | Inhibition zone (isolate AB26): 18 mm | Inhibition zone (isolate AB27): 9 mm | Inhibition zone (isolate AB28): 15 mm | Inhibition zone (isolate AB29): 15 mm | Inhibition zone (isolate AB30): 15 mm | Inhibition zone (isolate AB31): NZ | Inhibition zone (isolate AB32): NZ | susceptibility category (isolate AB33, AK disc): S (Sensitive ≥17) | Inhibition zone (isolate AB33): 25 mm

CC1(C)S[C@@H]2[C@H](NC(=O)[C@H](N)c3ccc(O)cc3)C(=O)N2[C@H]1C(=O)O [AMX, Amoxicillin]
susceptibility category (isolate AB1, AMX disc): R (Resistant ≤13) | Inhibition zone (isolate AB1): NZ | susceptibility category (isolate AB2, AMX disc): R (Resistant ≤13) | Inhibition zone (isolate AB2): NZ | susceptibility category (isolate AB3, AMX disc): R (Resistant ≤13) | Inhibition zone (isolate AB3): NZ | susceptibility category (isolate AB4, AMX disc): R (Resistant ≤13) | Inhibition zone (isolate AB4): NZ | susceptibility category (isolate AB5, AMX disc): R (Resistant ≤13) | Inhibition zone (isolate AB5): NZ | susceptibility category (isolate AB6, AMX disc): R (Resistant ≤13) | Inhibition zone (isolate AB6): NZ | susceptibility category (isolate AB7, AMX disc): R (Resistant ≤13) | Inhibition zone (isolate AB7): NZ | susceptibility category (isolate AB8, AMX disc): R (Resistant ≤13) | Inhibition zone (isolate AB8): NZ | susceptibility category (isolate AB9, AMX disc): R (Resistant ≤13) | Inhibition zone (isolate AB9): NZ | susceptibility category (isolate AB10, AMX disc): R (Resistant ≤13) | Inhibition zone (isolate AB10): NZ | susceptibility category (isolate AB11, AMX disc): R (Resistant ≤13) | Inhibition zone (isolate AB11): NZ | susceptibility category (isolate AB12, AMX disc): R (Resistant ≤13) | Inhibition zone (isolate AB12): NZ | susceptibility category (isolate AB13, AMX disc): R (Resistant ≤13) | Inhibition zone (isolate AB13): NZ | susceptibility category (isolate AB14, AMX disc): R (Resistant ≤13) | Inhibition zone (isolate AB14): NZ | susceptibility category (isolate AB15, AMX disc): R (Resistant ≤13) | Inhibition zone (isolate AB15): NZ | susceptibility category (isolate AB16, AMX disc): R (Resistant ≤13) | Inhibition zone (isolate AB16): NZ | susceptibility category (isolate AB17, AMX disc): R (Resistant ≤13) | Inhibition zone (isolate AB17): NZ | susceptibility category (isolate AB18, AMX disc): R (Resistant ≤13) | Inhibition zone (isolate AB18): NZ | susceptibility category (isolate AB19, AMX disc): R (Resistant ≤13) | Inhibition zone (isolate AB19): NZ | susceptibility category (isolate AB20, AMX disc): R (Resistant ≤13) | Inhibition zone (isolate AB20): NZ | susceptibility category (isolate AB21, AMX disc): R (Resistant ≤13) | Inhibition zone (isolate AB21): NZ | susceptibility category (isolate AB22, AMX disc): R (Resistant ≤13) | Inhibition zone (isolate AB22): NZ | susceptibility category (isolate AB23, AMX disc): R (Resistant ≤13) | Inhibition zone (isolate AB23): NZ | susceptibility category (isolate AB24, AMX disc): R (Resistant ≤13) | Inhibition zone (isolate AB24): NZ | susceptibility category (isolate AB25, AMX disc): R (Resistant ≤13) | Inhibition zone (isolate AB25): NZ | susceptibility category (isolate AB26, AMX disc): R (Resistant ≤13) | Inhibition zone (isolate AB26): NZ | susceptibility category (isolate AB27, AMX disc): R (Resistant ≤13) | Inhibition zone (isolate AB27): NZ | susceptibility category (isolate AB28, AMX disc): R (Resistant ≤13) | Inhibition zone (isolate AB28): 9 mm | susceptibility category (isolate AB29, AMX disc): R (Resistant ≤13) | Inhibition zone (isolate AB29): NZ | susceptibility category (isolate AB30, AMX disc): R (Resistant ≤13) | Inhibition zone (isolate AB30): NZ | susceptibility category (isolate AB31, AMX disc): R (Resistant ≤13) | Inhibition zone (isolate AB31): 8 mm | susceptibility category (isolate AB32, AMX disc): R (Resistant ≤13) | Inhibition zone (isolate AB32): 8 mm | susceptibility category (isolate AB33, AMX disc): R (Resistant ≤13) | Inhibition zone (isolate AB33): NZ
